Experimental data: patent publication US20120004282A1, “RNA Interference Mediated Inhibition of the Intercellular Adhesion Molecule 1 (ICAM-1) Gene Expression Using Short Interfering Nucleic Acid (siNA)” (Merck Sharp & Dohme Corp,, priority 2009, published 2012)
[invAb] = inverted abasic unit; m = 2'-O-methyl; r = 2'-OH (RNA); f = 2'-fluoro

System: ICAM-1 mRNA
Test: ICAM-1 mRNA knock-down in transfected Calu-1 cells (Taqman RT-PCR)
Format: cell-based, human
Settings: Calu-1 cells, 10 nM siNA, 24 hrs post-transfection, mean ± S.D., relative to non-targeting control

Substance	% KD Human [%]
48716-DC: siNA duplex, ICAM-1 target site 368 (m); sense B GcAGucGuccGcuuccGcu TTB; antisense AGCGGAAGcGGAcGAcuGcUU (sense GCAGUCGUCCGCUUCCGCUTT; antisense AGCGGAAGCGGACGACUGCUU; sense: DNA at AGT, 2'-fluoro at CU, [invAb] at 5' end, 3' end, backbone not given here; antisense: sugars from the 5' end rrrmmmmmfmmmfmmffmfmm, backbone not given here)	22 ± 6
48707-DC: siNA duplex, ICAM-1 target site 258 (m); sense B AcucAGuGGcuGAAAGAuG TTB; antisense CAUcuuucAGccAcuGAGuUU (sense ACUCAGUGGCUGAAAGAUGTT; antisense CAUCUUUCAGCCACUGAGUUU; sense: DNA at AGT, 2'-fluoro at CU, [invAb] at 5' end, 3' end, backbone not given here; antisense: sugars from the 5' end rrrfffffmmffmffmmmfmm, backbone not given here)	46 ± 17
48727-DC: siNA duplex, ICAM-1 target site 1521 (h); sense B GGGAuuGuccGGGAAAcuG TTB; antisense CAGuuucccGGAcAAucccUU (sense GGGAUUGUCCGGGAAACUGTT; antisense CAGUUUCCCGGACAAUCCCUU; sense: DNA at AGT, 2'-fluoro at CU, [invAb] at 5' end, 3' end, backbone not given here; antisense: sugars from the 5' end rrrffffffmmmfmmffffmm, backbone not given here)	23 ± 6
